Laboratory results published in patent US20260028390A1, “ALPHA1-ANTITRYPSIN FOR USE IN THE TREATMENT OF DISEASES OR DISORDERS OF THE NERVOUS SYSTEM SUCH AS CHRONIC INFLAMMATORY DEMYELINATING POLYNEUROPATHY” (Ageronix SA, priority 2022, published 2026).

System: HMC3-MHCII^Luc cells
Test: RNAseq differential gene expression / GSEA in AAT-treated resting and IFNγ-activated microglia
Assay type: cell-based, human
Experimental: • A) Human microglial HMC3-MHCII^Luc cells were plated at day 0, presented IFNγ at day 1 until day 2 and measurement of the luciferase activity and cell viability were done at day 4. • B) AATs were applied from day 0 to day 4 on HMC3-MHCII^Luc cells. Activation was measured by the activity of MHCII-driven luciferase and represented as percentage of IFNγ control for all conditions. All conditions were performed in triplicates, error bars represent standard deviation. • C) Bulk RNA extraction was performed on the same HMC3-MHCII^Luc cultures. Quality control (QC) were applied to RNA before sequencing. QC of the sequencing was done prior to mapping on the human genome. Mapped reads were counted, and differential gene expression was measured between the conditions (see Table 1-10). (FIGS. 3A, 3B and 3C)
RNAseq data from plasma-derived and recombinant AATs were pooled, normalized and analyzed through Gene Set Enrichment Analysis (GSEA) (https://www.gsea-msigdb.org/gsea/index.jsp; Subramanian, A., et al. Proc. Natl. Acad. Sci. USA, 102 (43): 15545-15550, 2005.). […] Importantly, both the IFNγ and inflammatory responses were dampened by AAT. However, the downregulation of the inflammatory response genes in (C) was just under significance.
Tables of genes related to antigen presentation (Table 1), cytokine signaling (Table 2), interferon signaling (Table 3) and complement activation (Table 4). Inflammatory top gene (FC>2; p-value<0.05; left column), were defined by differential expression between untreated and IFNγ-treated cells (inflammation; middle column).
HMC3-MHCII^Luc and HMC3-MHCII^Luc; Ubi^AAT (endogenous AAT) cell lines were seeded into 96-well plates at a density of approximately 2500 cells/well. HMC3-MHCII^Luc cell line was plated and was added plasma-derived AAT and recombinant AATs (produced in CHO cells, AAT 1 and AAT 2) 3h later and at ranged concentration (1; 10 or 25 μM). 24h after, still in the presence of exogenous or endogenous AAT, microglial activation was induced with a 24h-long IFNγ presentation (10 ng/ml). IFNγ was then removed and both HMC3-MHCII^Luc and HMC3-MHCII^Luc; Ubi^AAT cells were cultured for 48h in exogenous or endogenous presence of AAT before cell cultures were beeing assessed for cell viability and activation (See FIGS. 3A, 3B, 3C and 4A,4B, 4C).
RNA samples from plasma-derived AAT and recombinant AAT Nr. 2 were checked for quality (2100 Bioanalyzer, Agilent) and libraries prepared with Truseq RNA Library Kit (Illumina, RS-122-2001). Libraries were sequenced (HiSeq 4000, Illumina) controlled for the quality of sequencing (FastQC), mapped on the human genome (STAR v.2.7.0f; UCSC hg38), reads were counted (HTSeq v0.9.1) and the differential expression analysis was performed with the R/Bioconductor package (edgeR 1.30.1.).

[1] = AAT (left block), GBS risk gene
[2] = AAT, resting microglia, AD risk gene
[3] = AAT, resting microglia, MCT*/PN risk gene
[4] = AAT, resting microglia, MS risk gene
[5] = AAT, resting microglia, PD risk gene
[6] = FC AAT, resting microglia, M2 gene

## alpha1-antitrypsin (AAT) protein
[1]
  CDC42 expression FC AAT: −1.35
  FOS expression FC AAT: −2.31
  GLRX5 expression FC AAT: 1.12
  GUK1 expression FC AAT: 1.57
  HAGH expression FC AAT: 1.40
  HMGB2 expression FC AAT: −1.20
  MARCKS expression FC AAT: −2.06
  PKN2 expression FC AAT: −1.47
  SENP6 expression FC AAT: −1.47
  SMCHD1 expression FC AAT: −1.39
  ZNF12 expression FC AAT: −1.26
AAT treatment in absence or presence of IFNγ, pooled plasma-derived and recombinant AAT RNAseq data
  IFNγ and inflammatory responses (GSEA gene families): dampened
[2]
  ABCA7 expression FC: 1.75
  APOE expression FC: 1.74
  BIN1 expression FC: 1.33
  CD2AP expression FC: −1.39
  CLU expression FC: −1.30
  PICALM expression FC: −1.48
  PSEN2 expression FC: 1.45
  TREM2 expression FC: 2.22
[3]
  ARHGEF10 expression FC: 1.19
  CCT5 expression FC: −1.17
  DNAJB2* expression FC: 1.39
  DST expression FC: −1.35
  DYNC1H1* expression FC: −1.40
  FIG4* expression FC: −1.42
  GAN* expression FC: −1.21
  GARS* expression FC: −1.21
  GDAP1* expression FC: −1.54
  GNB4* expression FC: −1.56
  HSPB1* expression FC: 1.67
  IFRD1 expression FC: 1.23
  IGHMBP2* expression FC: 1.39
  KIF1A expression FC: 2.76
  KIF1B* expression FC: −1.21
  LRSAM1* expression FC: 1.36
  MTMR2* expression FC: −1.36
  PLEKHG5* expression FC: 1.49
  SBF2 expression FC: −1.20
  SCN9A expression FC: −1.50
  SCN11A expression FC: 4.49
  SETX expression FC: −1.23
  SPTLC1 expression FC: −1.23
  TFG* expression FC: −1.28
  TRIM2* expression FC: −1.39
  TRPV4* expression FC: 1.92
  WNK1 expression FC: −1.14
[4]
  AGAP2 expression FC: 1.30
  AHI1 expression FC: −1.46
  CBLB expression FC: −1.24
  CD40 expression FC: 1.17
  CD58 expression FC: −1.61
  CDC37 expression FC: 1.26
  CYP24A1 expression FC: 2.55
  EXTL2 expression FC: −1.76
  HLA-A expression FC: 1.48
  HLA-DRB1 expression FC: −1.47
  METTL1 expression FC: 1.22
  MPV17L2 expression FC: 1.31
  PTGER4 expression FC: −1.29
  PTPRK expression FC: −1.38
  RPS6KB1 expression FC: −1.23
  SLC30A7 expression FC: −1.77
[5]
  ATP13A2 expression FC: 1.42
  DNAJC6 expression FC: −1.14
  DNAJC13 expression FC: −1.37
  GIGYF2 expression FC: −1.16
  LRP10 expression FC: 1.29
  LRRK2 expression FC: −3.98
  PLA2G6 expression FC: 1.55
  SYNJ1 expression FC: −1.33
  TMEM230 expression FC: −1.42
  VPS13C expression FC: −1.41
  VPS35 expression FC: −1.42
[6]
  ACAN expression FC: 1.37
  AP2A2 expression FC: 1.26
  APLP1 expression FC: 1.41
  APRT expression FC: 1.16
  BAIAP2 expression FC: 1.45
  C16orf45 expression FC: 1.31
  CHPF expression FC: 1.80
  COL1A1 expression FC: 1.58
  COL11A1 expression FC: 1.14
  DBN1 expression FC: 1.42
  ENG expression FC: 1.29
  EXTL1 expression FC: 2.19
  FEZ1 expression FC: 1.45
  FGD3 expression FC: 1.76
  FOXC1 expression FC: 1.26
  FZD2 expression FC: 1.39
  FZD7 expression FC: 1.24
  GADD45GIP1 expression FC: 1.55
  GREM1 expression FC: 1.69
  GUK1 expression FC: 1.57
  HSPG2 expression FC: 1.58
  IGFBP2 expression FC: 1.63
  ITGA11 expression FC: 1.65
  MARCH4 expression FC: 1.28
  MBOAT7 expression FC: 1.44
  METRN expression FC: 2.23
  MIF expression FC: 1.83
  MMP1 expression FC: 2.51
  MOSPD3 expression FC: 1.51
  MXRA8 expression FC: 1.40
  NID1 expression FC: 1.16
  NTN4 expression FC: 1.25
  PAPPA expression FC: 1.24
  PLEC expression FC: 1.69
  PLTP expression FC: 1.28
  PREX1 expression FC: 1.25
  PRSS36 expression FC: 1.58
  PTPRS expression FC: 1.27
  RAB3IL1 expression FC: 1.55
  RASA4B expression FC: 1.46
  RASAL1 expression FC: 1.52
  SART1 expression FC: 1.44
  SEMA3B expression FC: 1.50
  SERPINH1 expression FC: 1.21
  SLC22A5 expression FC: 1.22
  STC2 expression FC: 1.42
  TAGLN expression FC: 1.37
  TBCD expression FC: 1.26
  TEKT4P2 expression FC: 2.46
  TGFB1I1 expression FC: 1.31
  TNFRSF1B expression FC: 1.46
  TTC9 expression FC: 1.65
  ZIC2 expression FC: 2.42
FC inflammation + AAT, M2 gene
  AHNAK2 expression FC: 1.40
  ANPEP expression FC: 1.25
  ARHGDIB expression FC: 1.28
  BAIAP2 expression FC: 1.24
  BGN expression FC: 1.27
  CHPF expression FC: 1.58
  CLIP3 expression FC: 1.25
  CLMP expression FC: 1.22
  COL11A1 expression FC: 1.16
  DBN1 expression FC: 1.31
  ENG expression FC: 1.35
  EXTL1 expression FC: 1.78
  FADS2 expression FC: 1.20
  FAT1 expression FC: 1.34
  FEZ1 expression FC: 1.34
  FGD3 expression FC: 2.31
  FZD2 expression FC: 1.37
  FZD7 expression FC: 1.36
  GADD45GIP1 expression FC: 1.51
  GATA6 expression FC: 1.47
  GREM1 expression FC: 1.56
  GUK1 expression FC: 1.31
  HCK expression FC: 1.44
  HLA-DRB5 expression FC: 2.09
  HSPG2 expression FC: 1.41
